Measured values reported in PubChem BioAssay AID1918931 (Molecular Pharmacology Branch, DTP, NCI, 2023).

Tested on: 138582-337-R-J1-PDC complex spheroid viability
Assay: Anticancer human tumor 138582-337-R-J1-PDC patient-derived Merkel cell tumor cell line growth inhibition
Details: for IC50: curve of first compound; for viability, T/C: stronger effect = lower value
Description: Multicellular complex tumor spheroid response to LSD1 Inhibitor Iadademstat in combination with a variety of drugs and investigational agents in selected tumor cell lines
The current study was undertaken to assess response to LSD1 inhibitors in combination with standard-of-care drugs and investigational agents in solid tumor complex spheroid models as well as in the K-562 leukemia. Complex spheroids include a stromal component modeled by human endothelial cells (HUVEC) and fibroblasts modeled by human mesenchymal stem cells (MSCs). The concentration ranges selected for each drug and investigational agent were based upon clinically achievable concentrations if the clinical Cmax of the agent was known.
Compounds. The drugs and investigational agents used in this study are listed on Table 1. All of the agents used, including staurosporine (NSC755774) and gemcitabine (NSC613327), were obtained from the Developmental Therapeutics Program, NCI. FDA-approved anticancer drugs are available from the NCI at http://dtp.nci.nih.gov/branches/dscb/oncology_drugset_explanation.html. Drugs and investigational agents were >95% pure by proton nuclear magnetic resonance (NMR) and liquid chromatography/mass spectrometry (LC/MS). Stock solutions were prepared at 400x in DMSO, stored at -70 degrees C, and diluted in fresh medium prior to their use. The final concentration of DMSO in cell culture wells never exceeded 0.25% (v/v). The FDA-approved anticancer drug set is available from the Developmental Therapeutics Program at https://dtp.cancer.gov/organization/dscb/obtaining/available_plates.htm. All drugs and investigational agents were tested over a range starting from a high concentration at or near the clinical Cmax and decreasing in half-log increments. If the clinical Cmax for an agent had not been determined, the highest concentration tested was 10 microM.
Cell Lines. The patient-derived cancer cell (PDC) lines: 292921-168-R-J2-PDC, K24384-001-R-PDC, and 521955-158-R2-J5-PDC pancreatic carcinomas, 556581-035-R-J1 ovarian carcinoma, 324938-238-R-J1-PDC, 855422-203-R-J1-PDC and 883617-216-R-J1-PDC urothelial bladder carcinomas, 743489-274-T-PDC renal cell carcinoma, 138582-R-J1 Merkel cell tumor, K60290-347-R-J1 and K57222-313-R-J1-PDC glioblastomas, 653999-131-R-J2-PDC, LG0703-F948-PDC, and 349418-098-R-PDC non-small cell lung carcinomas, 885512-296-R-J2-PDC, 171881-019-R-J1-PDC breast carcinomas and 186277-243-T-J2-PDC and 233499-124-R-J2-PDC colon carcinomas were obtained from the NCI Patient-Derived Models Repository (PDMR, https://pdmr.cancer.gov). The established cell lines NCI/ADR-RES (RRID:CVCL_14520 and OVCAR-5 (RRID:CVCL_1628) ovarian carcinomas, 786-O (RRID:CVCL_1051) and A498 (RRID:CVCL_A498) renal cell carcinoma, NCI-H211 (ATCC, cat. CRL-5824; RRID:CVCL_1529), NCI-H196 (ATCC, cat. CRL-5823, RRID:CVCL_1509), SW 1271 (ATCC, cat. CRL-2177, RRID:CVCL_1716) and NCI-H1876 (ATCC, cat. CRL-5902, RRID:CVCL_1503) small cell lung carcinomas, MDA-MB-231 (RRID:CVCL_0062) and MDA-MB-468 (RRID:CVCL_0419)breast carcinomas (10-12). Pooled donor human umbilical vein endothelial cells (HUVEC, Lonza, cat. CC-2519) and human mesenchymal stem cells (hMSC, Lonza, cat. PT-2501) were purchased from Lonza (Walkersville, MD).
Cell Culture. All cells were maintained in an incubator at 37 degrees C and 5% CO2 with 95% humidity. The PDC lines were cultured according to standard operating procedures established by the NCI PDMR (https://pdmr.cancer.gov). Briefly all PDCs were thawed and cultured in Matrigel-coated flasks prepared with a working solution of 1X Ham's F-12 nutrient mix, without supplementation (Invitrogen, Waltham, MA, cat. 11765054), 100 U/mL penicillin-streptomycin (Invitrogen, cat. 15140122), and 2.5% Matrigel (Corning Inc., Corning, NY, cat. 354248) for the first three passages. […]

[1] = second compound 0.1 µM, first compound 0.000949 µM
[2] = second compound 0.1 µM, first compound 0.003 µM
[3] = second compound 0.1 µM, first compound 0.00949 µM
[4] = second compound 0.1 µM, first compound 0.03 µM
[5] = second compound 0.1 µM, first compound 0.0949 µM
[6] = second compound 0.1 µM, first compound 0.3 µM
[7] = second compound 0.316 µM, first compound 0.000949 µM
[8] = second compound 0.316 µM, first compound 0.003 µM
[9] = second compound 0.316 µM, first compound 0.00949 µM
[10] = second compound 0.316 µM, first compound 0.03 µM
[11] = second compound 0.316 µM, first compound 0.0949 µM
[12] = second compound 0.316 µM, first compound 0.3 µM
[13] = second compound 1 µM, first compound 0.000949 µM
[14] = second compound 1 µM, first compound 0.003 µM
[15] = second compound 1 µM, first compound 0.00949 µM
[16] = second compound 1 µM, first compound 0.03 µM
[17] = second compound 1 µM, first compound 0.0949 µM
[18] = second compound 1 µM, first compound 0.3 µM
[19] = second compound 3.16 µM, first compound 0.000949 µM
[20] = second compound 3.16 µM, first compound 0.003 µM
[21] = second compound 3.16 µM, first compound 0.00949 µM
[22] = second compound 3.16 µM, first compound 0.03 µM
[23] = second compound 3.16 µM, first compound 0.0949 µM
[24] = second compound 3.16 µM, first compound 0.3 µM
[25] = second compound 10 µM, first compound 0.000949 µM
[26] = second compound 10 µM, first compound 0.003 µM
[27] = second compound 10 µM, first compound 0.00949 µM
[28] = second compound 10 µM, first compound 0.03 µM
[29] = second compound 10 µM, first compound 0.0949 µM
[30] = second compound 10 µM, first compound 0.3 µM
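Also: spheroids exposed to agents for 7 days.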
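For viability, T/C in this document: 100% = DMSO vehicle control viability.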

Compound	IC50 (second compound 0.1 µM)	IC50 (second compound 0.316 µM)	IC50 (second compound 1 µM)	IC50 (second compound 3.16 µM)	IC50 (second compound 10 µM)	viability, T/C [1]	viability, T/C [2]	viability, T/C [3]	viability, T/C [4]	viability, T/C [5]	viability, T/C [6]	viability, T/C [7]	viability, T/C [8]	viability, T/C [9]	viability, T/C [10]	viability, T/C [11]	viability, T/C [12]	viability, T/C [13]	viability, T/C [14]	viability, T/C [15]	other results
CCc1c2c(nc3ccc(O)cc13)-c1cc3c(c(=O)n1C2)COC(=O)[C@]3(O)CC + NC1CC1c1ccc(-c2cccc(O)c2)cc1	4.56 nM	2.69 nM	3.28 nM	4.01 nM	5.59 nM	64.6%	65.2%	23.9%	0.24%	0.19%	0.2%	73.8%	45.9%	23.5%	0.59%	0.13%	0.24%	57.1%	51.3%	23.9%	viability, T/C [16]: 0.3%; viability, T/C [17]: 0.16%; viability, T/C [18]: 0.21%; viability, T/C [19]: 78%; viability, T/C [20]: 57.7%; viability, T/C [21]: 25.3%; viability, T/C [22]: 0.56%; viability, T/C [23]: 0.14%; viability, T/C [24]: 0.23%; viability, T/C [25]: 82.4%; viability, T/C [26]: 68%; viability, T/C [27]: 34.7%; viability, T/C [28]: 0.44%; viability, T/C [29]: 0.21%; viability, T/C [30]: 0.33%
Nc1ccn(C2OC(CO)C(O)C2(F)F)c(=O)n1 (stereo not given) + NC1CC1c1ccc(-c2cccc(O)c2)cc1	> 300 nM	> 300 nM	> 300 nM	> 300 nM	> 300 nM	75.3%	69.9%	86.8%	59%	56%	58.3%	62.5%	83.7%	73.7%	64.6%	64.6%	67.9%	77.1%	79.7%	79.5%	viability, T/C [16]: 72.8%; viability, T/C [17]: 66.7%; viability, T/C [18]: 57.6%; viability, T/C [19]: 74.4%; viability, T/C [20]: 75.7%; viability, T/C [21]: 83.7%; viability, T/C [22]: 74.1%; viability, T/C [23]: 67.6%; viability, T/C [24]: 85%; viability, T/C [25]: 93.5%; viability, T/C [26]: 79%; viability, T/C [27]: 99.7%; viability, T/C [28]: 73.5%; viability, T/C [29]: 70.3%; viability, T/C [30]: 86.8%
